In ChEMBL document CHEMBL1255295, “Convergent in vivo and in vitro selection of ceftazidime resistance mutations at position 167 of CTX-M-3 beta-lactamase in hypermutable Escherichia coli strains” (2008):
Converted amounts (≈) assume the structure as drawn.

What was measured:
Escherichia coli [1] = test: Antimicrobial activity against ceftazidime-resistant Escherichia coli Irk2320 harboring beta-lactamase CTX-M-42 Pro167Thr mutant gene by agar dilution method; type: functional
Escherichia coli [2] = test: Antimicrobial activity against ceftazidime-resistant Escherichia coli Irk2322 harboring beta-lactamase CTX-M-42 Pro167Thr mutant gene by agar dilution method; type: functional
Escherichia coli [3] = test: Antimicrobial activity against Escherichia coli AB14156 harboring beta-lactamase CTX-M-42 Pro167Thr mutant gene by agar dilution method; type: functional
Escherichia coli [4] = test: Antimicrobial activity against Escherichia coli EPI300 harboring pCC1 carrying beta-lactamase CTX-M-3 gene by agar dilution method; type: functional
Escherichia coli [5] = test: Antimicrobial activity against Escherichia coli EPI300 harboring pCC1 carrying beta-lactamase CTX-M-42 Pro167Thr mutant gene by agar dilution method; type: functional
Escherichia coli [6] = test: Antimicrobial activity against Escherichia coli EPI300 transformant harboring pCC1 by agar dilution method; type: functional
Escherichia coli [7] = test: Antimicrobial activity against Escherichia coli Irk1224 harboring beta-lactamase CTX-M-3 by agar dilution method; type: functional
Escherichia coli [8] = test: Antimicrobial activity against ceftazidime-resistant Escherichia coli Irk2320 harboring beta-lactamase CTX-M-42 Pro167Thr mutant gene by agar dilution method in presence of beta-lactamase inhibitor clavulanic acid
Escherichia coli [9] = test: Antimicrobial activity against ceftazidime-resistant Escherichia coli Irk2322 harboring beta-lactamase CTX-M-42 Pro167Thr mutant gene by agar dilution method in presence of beta-lactamase inhibitor clavulanic acid
Escherichia coli [10] = test: Antimicrobial activity against Escherichia coli AB14156 harboring beta-lactamase CTX-M-42 Pro167Thr mutant gene by agar dilution method in presence of beta-lactamase inhibitor clavulanic acid
Escherichia coli [11] = test: Antimicrobial activity against Escherichia coli EPI300 harboring pCC1 carrying beta-lactamase CTX-M-3 by agar dilution method in presence of beta-lactamase inhibitor clavulanic acid
Escherichia coli [12] = test: Antimicrobial activity against Escherichia coli EPI300 harboring pCC1 carrying beta-lactamase CTX-M-42 Pro167Thr mutant gene by agar dilution method in presence of beta-lactamase inhibitor clavulanic acid
Escherichia coli [13] = test: Antimicrobial activity against Escherichia coli EPI300 harboring plasmid pCC1 by agar dilution method in presence of beta-lactamase inhibitor clavulanic acid
Escherichia coli [14] = test: Antimicrobial activity against Escherichia coli Irk1224 harboring beta-lactamase CTX-M-3 by agar dilution method in presence of beta-lactamase inhibitor clavulanic acid
Escherichia coli [15] = test: Antimicrobial activity against Escherichia coli Irk1224 type 2 mutant harboring beta-lactamase CTX-M-3 Ser167 mutant gene by agar dilution method; type: functional
Escherichia coli [16] = test: Antimicrobial activity against Escherichia coli Irk1224 type 3 mutant harboring beta-lactamase CTX-M-3 Lys136 mutant gene by agar dilution method; type: functional
Escherichia coli [17] = test: Antimicrobial activity against Escherichia coli GM2995 harboring plasmid pCC1 carrying beta-lactamase CTX-M-3 gene by agar dilution method; type: functional
Escherichia coli [18] = test: Antimicrobial activity against Escherichia coli GM2995 harboring plasmid pCC1 carrying beta-lactamase CTX-M-3 from by agar dilution method; type: functional
Escherichia coli [19] = test: Antimicrobial activity against Escherichia coli GM2995 harboring plasmid pCC1 carrying beta-lactamase CTX-M-3 Ser167 mutant gene by agar dilution method
Escherichia coli [20] = test: Antimicrobial activity against Escherichia coli Irk1224 type 1 mutant harboring beta-lactamase CTX-M-3 by agar dilution method; type: functional
Escherichia coli [21] = test: Antimicrobial activity against Escherichia coli EPI300 Irk1224 type 1 mutant harboring beta-lactamase CTX-M-3 gene by agar dilution method; type: functional
Escherichia coli [22] = test: Antimicrobial activity against Escherichia coli EPI300 Irk1224 type 2 mutant harboring beta-lactamase CTX-M-3 Ser167 mutant gene by agar dilution method
Escherichia coli [23] = test: Antimicrobial activity against Escherichia coli EPI300 Irk1224 type 3 mutant harboring CTX-M-3 beta-lactamase Lys136 mutant gene by agar dilution method
Escherichia coli [24] = test: Antimicrobial activity against Escherichia coli EPI300 harboring GM2995 pCC1 carrying beta-lactamase CTX-M-3 gene by agar dilution method; type: functional
Escherichia coli [25] = test: Antimicrobial activity against Escherichia coli EPI300 harboring GM2995 pCC1 carrying beta-lactamase CTX-M-3 Ser167 mutant gene by agar dilution method
Escherichia coli [26] = test: Antimicrobial activity against Escherichia coli EPI300 harboring GM2995 pCC1-1224 carrying CTX-M-3 beta-lactamase gene from by agar dilution method; type: functional

`CO/N=C(\C(=O)N[C@@H]1C(=O)N2C(C(=O)[O-])=C(C[N+]3(C)CCCC3)CS[C@H]12)c1csc(N)n1` gave an MIC (Escherichia coli [1]) of 1 µg/mL (≈ 2.08 µM), an MIC (Escherichia coli [2]) of 1 µg/mL (≈ 2.08 µM) and an MIC (Escherichia coli [3]) of 1 µg/mL (≈ 2.08 µM). For the same compound, the MIC (Escherichia coli [4]) was 0.5 µg/mL (≈ 1.04 µM), the MIC (Escherichia coli [5]) was 0.25 µg/mL (≈ 0.52 µM) and the MIC (Escherichia coli [6]) was 0.06 µg/mL (≈ 0.125 µM). It also gave an MIC (Escherichia coli [7]) of 32 µg/mL (≈ 66.6 µM).
Work on `CC1(C)S[C@@H]2[C@H](NC(=O)[C@H](N)c3ccc(O)cc3)C(=O)N2[C@H]1C(=O)O` [AMOXICILLIN] yielded an MIC (Escherichia coli [1]) of 16 µg/mL (≈ 43.8 µM), an MIC (Escherichia coli [2]) of 16 µg/mL (≈ 43.8 µM) and an MIC (Escherichia coli [3]) of 16 µg/mL (≈ 43.8 µM). It also gave an MIC (Escherichia coli [4]) of 8 µg/mL (≈ 21.9 µM), an MIC (Escherichia coli [5]) of 8 µg/mL (≈ 21.9 µM) and an MIC (Escherichia coli [6]) of 2 µg/mL (≈ 5.47 µM). For the same compound, the MIC (Escherichia coli [8]) was 8 µg/mL, the MIC (Escherichia coli [9]) was 8 µg/mL and the MIC (Escherichia coli [10]) was 8 µg/mL. It also gave an MIC (Escherichia coli [11]) of 4 µg/mL, an MIC (Escherichia coli [12]) of 4 µg/mL and an MIC (Escherichia coli [13]) of 1 µg/mL. It also gave an MIC (Escherichia coli [7]) of 32 µg/mL (≈ 87.6 µM) and an MIC (Escherichia coli [14]) of 16 µg/mL.
`CC1(C)S[C@@H]2[C@H](NC(=O)[C@H](N)c3ccccc3)C(=O)N2[C@H]1C(=O)O` [AMPICILLIN] showed an MIC (Escherichia coli [1]) of at least 256 µg/mL, an MIC (Escherichia coli [2]) of at least 256 µg/mL and an MIC (Escherichia coli [3]) of at least 256 µg/mL. For the same compound, the MIC (Escherichia coli [4]) was at least 256 µg/mL, the MIC (Escherichia coli [5]) was at least 256 µg/mL and the MIC (Escherichia coli [15]) was at least 256 µg/mL. The MIC (Escherichia coli [16]) was at least 256 µg/mL, the MIC (Escherichia coli [17]) was at least 256 µg/mL and the MIC (Escherichia coli [18]) was at least 256 µg/mL. The MIC (Escherichia coli [19]) was 128 µg/mL (≈ 366 µM), the MIC (Escherichia coli [20]) was at least 256 µg/mL and the MIC (Escherichia coli [21]) was at least 256 µg/mL. For the same compound, the MIC (Escherichia coli [22]) was 128 µg/mL (≈ 366 µM), the MIC (Escherichia coli [23]) was 32 µg/mL (≈ 91.6 µM) and the MIC (Escherichia coli [24]) was at least 256 µg/mL. The MIC (Escherichia coli [25]) was 128 µg/mL (≈ 366 µM), the MIC (Escherichia coli [26]) was at least 256 µg/mL and the MIC (Escherichia coli [7]) was at least 256 µg/mL.
`CO/N=C(\C(=O)N[C@@H]1C(=O)N2C(C(=O)O)=C(COC(C)=O)CS[C@H]12)c1csc(N)n1` [CEFOTAXIME] showed an MIC (Escherichia coli [8]) of 4 µg/mL, an MIC (Escherichia coli [9]) of 4 µg/mL and an MIC (Escherichia coli [10]) of 4 µg/mL. It also gave an MIC (Escherichia coli [11]) of 4 µg/mL, an MIC (Escherichia coli [12]) of 4 µg/mL and an MIC (Escherichia coli [13]) of 4 µg/mL. It also gave an MIC (Escherichia coli [15]) of 64 µg/mL (≈ 141 µM), an MIC (Escherichia coli [16]) of 64 µg/mL (≈ 141 µM) and an MIC (Escherichia coli [17]) of 4 µg/mL (≈ 8.78 µM). The MIC (Escherichia coli [18]) was at least 256 µg/mL, the MIC (Escherichia coli [19]) was 1 µg/mL (≈ 2.2 µM) and the MIC (Escherichia coli [20]) was at least 256 µg/mL. For the same compound, the MIC (Escherichia coli [22]) was 1 µg/mL (≈ 2.2 µM), the MIC (Escherichia coli [23]) was 1 µg/mL (≈ 2.2 µM) and the MIC (Escherichia coli [25]) was 1 µg/mL (≈ 2.2 µM). It also gave an MIC (Escherichia coli [14]) of 4 µg/mL.
For `CC(C)(O/N=C(\C(=O)N[C@@H]1C(=O)N2C(C(=O)[O-])=C(C[n+]3ccccc3)CS[C@H]12)c1csc(N)n1)C(=O)O` [CEFTAZIDIME], the MIC (Escherichia coli [6]) was 0.25 µg/mL (≈ 0.457 µM), the MIC (Escherichia coli [8]) was 4 µg/mL and the MIC (Escherichia coli [9]) was 4 µg/mL. The MIC (Escherichia coli [10]) was 4 µg/mL, the MIC (Escherichia coli [11]) was 4 µg/mL and the MIC (Escherichia coli [12]) was 4 µg/mL. The MIC (Escherichia coli [13]) was 4 µg/mL, the MIC (Escherichia coli [15]) was at least 256 µg/mL and the MIC (Escherichia coli [16]) was at least 256 µg/mL. It also gave an MIC (Escherichia coli [17]) of 1 µg/mL (≈ 1.83 µM), an MIC (Escherichia coli [18]) of 32 µg/mL (≈ 58.5 µM) and an MIC (Escherichia coli [19]) of 32 µg/mL (≈ 58.5 µM). For the same compound, the MIC (Escherichia coli [20]) was at least 256 µg/mL, the MIC (Escherichia coli [21]) was 1 µg/mL (≈ 1.83 µM) and the MIC (Escherichia coli [22]) was 16 µg/mL (≈ 29.3 µM). For the same compound, the MIC (Escherichia coli [23]) was 8 µg/mL (≈ 14.6 µM), the MIC (Escherichia coli [24]) was 1 µg/mL (≈ 1.83 µM) and the MIC (Escherichia coli [25]) was 16 µg/mL (≈ 29.3 µM). The MIC (Escherichia coli [26]) was 1 µg/mL (≈ 1.83 µM) and the MIC (Escherichia coli [14]) was 4 µg/mL.
For `CO/N=C(\C(=O)N[C@@H]1C(=O)N2C(C(=O)O)=C(CSc3nc(=O)c(O)nn3C)CS[C@H]12)c1csc(N)n1` [CEFTRIAXONE], the MIC (Escherichia coli [1]) was 8 µg/mL (≈ 14.4 µM), the MIC (Escherichia coli [2]) was 8 µg/mL (≈ 14.4 µM) and the MIC (Escherichia coli [3]) was 8 µg/mL (≈ 14.4 µM). For the same compound, the MIC (Escherichia coli [4]) was 4 µg/mL (≈ 7.21 µM), the MIC (Escherichia coli [5]) was 1 µg/mL (≈ 1.8 µM) and the MIC (Escherichia coli [6]) was 0.06 µg/mL (≈ 0.108 µM). For the same compound, the MIC (Escherichia coli [7]) was at least 256 µg/mL.
